Read-outs that look alike come from different tables or passages of the source.
Experiments:
Format in all cases: cell-based
[1] = test system: Klebsiella pneumoniae KP153 (Tetracycline-resistant, tet(A), MDR, ESBL+); test: MIC assay KP153; conditions: Table 5
[2] = test system: Pseudomonas aeruginosa PA556 (Multiple-Mex efflux pump knockout strain)
[3] = test system: Escherichia coli EC155 (Tetracycline-resistant, tet(A))
[4] = test system: Proteus mirabilis PM385 (Urine ESBL+ isolate); test: MIC assay PM385
KP194 7E+05 = test: MIC assay KP194; conditions: Table 5
Excerpt: The assays were run as follows.

[5] = test system: Pseudomonas aeruginosa PA1145 (Strain used in murine pneumonia model); test: MIC assay PA1145; conditions: control compounds, numeric
[6] = test system: Acinetobacter baumannii AB250 (Cystic fibrosis isolate, MDR); test: MIC assay AB250
[7] = test system: Streptococcus pneumoniae SP106 (ATCC 49619); test: MIC assay SP106; conditions: Table 5
[8] = test system: Klebsiella pneumoniae KP457 (2009 ESBL+, CTX-M, OXA); test: MIC assay KP457
[9] = test system: Stenotrophomonas maltophilia SM256 (Cystic fibrosis isolate, MDR); test: MIC assay SM256
[10] = test system: Pseudomonas aeruginosa PA555 (ATCC BAA-47, wild type strain PAO1); test: MIC assay PA555
[11] = test system: Streptococcus pneumoniae SP160 (Tetracycline-resistant, tet(M)); test: MIC assay SP160
[12] = test system: Staphylococcus aureus SA161 (HA-MRSA, tetracycline-resistant, tet(M)); test: MIC assay SA161
[13] = test system: Enterococcus faecalis EF327 (Wound isolate (US) tet(M)); test: MIC assay EF327
[14] = test system: Escherichia coli EC107 (ATCC 25922); test: MIC assay EC107
[15] = test system: Enterococcus faecium EF404 (Blood isolate (US) tet(M)); test: MIC assay EF404
[16] = test system: Enterobacter cloacae EC603 (Urine isolate (Spain)); test: MIC assay EC603
[17] = test system: Burkholderia cenocepacia BC240 (Cystic fibrosis isolate, MDR); test: MIC assay BC240
[18] = test system: Enterococcus faecalis EF159 (Tetracycline-resistant, tet(M)); test: MIC assay EF159; conditions: Table 5

CN(C)c1cc(NC(=O)CNC(C)(C)C)c(O)c2c1C[C@H]1C[C@H]3[C@H](N(C)C)C(O)=C(C(N)=O)C(=O)[C@@]3(O)C(O)=C1C2=O [Tigecycline, tigecycline]
8 µg/mL: MIC (KP194 7E+05) | MIC AB250 ([6]; Table 5) | MIC AB250 ([6]; Table 6) | MIC AB250 ([6]; Table 7)
0.016 µg/mL: MIC SP106 49619 [7]
16 µg/mL: MIC PA1145 Vivisource [5] | MIC PA555 BAA-47 ([10]; Table 7) | MIC PA555 BAA-47 ([10]; control compounds, numeric)
1 µg/mL: MIC KP153 tetA [1] | MIC KP457 CTX-M-15 ([8]; Table 6) | MIC KP457 CTX-M-15 ([8]; Table 7) | MIC KP457 CTX-M-15 ([8]; control compounds, numeric) | MIC SM256 ([9]; Table 5) | MIC SM256 ([9]; Table 6) | MIC SM256 ([9]; Table 7)
0.25 µg/mL: MIC PA556 ([2]; Table 5) | MIC PA556 ([2]; Table 6) | MIC PA556 ([2]; Table 7)
4 µg/mL: MIC PM385 ([4]; Table 7) | MIC PM385 ([4]; control compounds, numeric)
0.5 µg/mL: MIC EC155 tetA ([3]; Table 5) | MIC EC155 tetA ([3]; Table 6) | MIC EC155 tetA ([3]; Table 7) | MIC EC155 tetA ([3]; control compounds, numeric)

CN(C)[C@@H]1C(O)=C(C(N)=O)C(=O)[C@@]2(O)C(O)=C3C(=O)c4c(O)cccc4C[C@H]3C[C@@H]12 [Sancycline, sancycline]
32 µg/mL: MIC KP153 tetA [1] | MIC EC155 tetA ([3]; Table 5) | MIC EC155 tetA ([3]; Table 6) | MIC EC155 tetA ([3]; Table 7) | MIC EC155 tetA ([3]; control compounds, numeric) | MIC (KP194 7E+05) | MIC PA555 BAA-47 ([10]; Table 7) | MIC PA555 BAA-47 ([10]; control compounds, numeric)
8 µg/mL: MIC PM385 ([4]; Table 7) | MIC PM385 ([4]; control compounds, numeric) | MIC ([8]; Klebsiella pneumoniae, read-out: MIC KP457 CTX-M-15) | MIC KP457 CTX-M-15 ([8]; Table 6) | MIC KP457 CTX-M-15 ([8]; Table 7)
0.25 µg/mL: MIC SP106 49619 [7]
16 µg/mL: MIC AB250 ([6]; Table 5) | MIC AB250 ([6]; Table 6) | MIC AB250 ([6]; Table 7)
1 µg/mL: MIC PA556 ([2]; Table 5) | MIC PA556 ([2]; Table 6) | MIC PA556 ([2]; Table 7) | MIC SM256 ([9]; Table 5) | MIC SM256 ([9]; Table 6) | MIC SM256 ([9]; Table 7)

CN(C)c1ccc(O)c2c1C[C@H]1C[C@H]3[C@H](N(C)C)C(O)=C(C(N)=O)C(=O)[C@@]3(O)C(O)=C1C2=O [Minocycline, minocycline]
8 µg/mL: MIC SA161 tetM ([12]; Table 5) | MIC SA161 tetM ([12]; Table 6) | MIC SA161 tetM ([12]; Table 7) | MIC SA161 tetM ([12]; control compounds, numeric) | MIC KP153 tetA [1] | MIC EC155 tetA ([3]; Table 5) | MIC EC155 tetA ([3]; Table 6) | MIC EF404 tetM ([15]; Table 7) | MIC EF404 tetM ([15]; control compounds, numeric) | MIC BC240 ([17]; Table 5) | MIC BC240 ([17]; Table 6) | MIC BC240 ([17]; Table 7) | MIC AB250 ([6]; Table 5) | MIC AB250 ([6]; Table 6) | MIC AB250 ([6]; Table 7) | MIC KP457 CTX-M-15 ([8]; Table 6) | MIC KP457 CTX-M-15 ([8]; Table 7) | MIC KP457 CTX-M-15 ([8]; control compounds, numeric)
0.5 µg/mL: MIC EC107 25922 ([14]; Table 5) | MIC EC107 25922 ([14]; control compounds, numeric) | MIC SM256 ([9]; Table 5) | MIC SM256 ([9]; Table 6) | MIC SM256 ([9]; Table 7)
33 µg/mL: MIC EC603 tetA ([16]; Table 6) | MIC EC603 tetA ([16]; Table 7)
2 µg/mL: MIC SP160 tetM ([11]; Table 4) | MIC SP160 tetM ([11]; Table 5) | MIC SP160 tetM ([11]; Table 7) | MIC SP160 tetM ([11]; control compounds, numeric)
32 µg/mL: MIC EF327 tetM ([13]; Table 7) | MIC EF327 tetM ([13]; control compounds, numeric) | MIC (KP194 7E+05)
0.015 µg/mL: MIC SP106 49619 [7]
16 µg/mL: MIC PM385 ([4]; Table 7) | MIC PM385 ([4]; control compounds, numeric) | MIC EF159 tetM [18] | MIC PA555 BAA-47 ([10]; control compounds, numeric)

Reference: patent publication US9573895B2, “Tetracycline compounds” (Tetraphase Pharmaceuticals, Inc., priority 2012, dated 2017)
